Like-named read-outs stand apart in the source and are kept apart here.
Assays:
[1] = test system: CRABPII protein in primary dermal fibroblasts; test: Fibroblast expression of CRABPII (Western blot); format: cell-based; settings: 24 hours; for Band Intensity (arbitrary units): CRABPII band; for Relative band intensity: relative to vehicle
Description: Cells were then plated out in 12 well plates at 38,000 cells per well, and incubated for 24 hours. […] Cells were treated with vehicle (ethanol) or 22R hydroxycholesterol and/or retinoic acid in 1 ml fresh medium (DMEM plus 10% FCS). Treatments were prepared as fresh 1000× stocks and diluted into medium immediately before addition to the cells. […] Cells were washed in 1 ml phosphate buffer saline and trypsinised from the plates. Cells were pelleted at 13000 g for 5 min and washed with 1 ml PBS. Cells were re-pelleted and re-suspended in protein lysis buffer (4M urea, 0.5% SDS, 10 mM EDTA in PBS with protease inhibitor cocktail). Samples were equilibrated for total protein content and the proteins separated by SDS-PAGE and blotted to nitrocellulose. Membranes were probed with antisera against the CRABPII protein and detected by ECL-plus. Intensity of signal was captured using a STORM scanner and quantified using ImageQuant 5.2.

[2] = test system: RAR reporter gene construct (RAREs) with over-expressed RARγ, RXRα and LXRα in Cos-7 cells; settings: 24 hours, fold activation over vehicle (ethanol) control

`CC(C)CC[C@@H](O)[C@@H](C)[C@H]1CC[C@H]2[C@@H]3CC=C4C[C@@H](O)CC[C@]4(C)[C@H]3CC[C@]12C` [22R hydroxycholesterol] was tested, and the “% change from vehicle” value ([1]; 5 μM 22R-hydroxycholesterol) was −0.8%, the “Band Intensity (arbitrary units)” value ([1]; 5 μM 22R-hydroxycholesterol) was 167664.2 arbitrary units and the Relative band intensity ([1]; 5 μM 22R-hydroxycholesterol) was 0.992. The “Fold activity +/− sd (n = 3)” value ([2]; 35 μM 22R hydroxycholesterol) was 1.209 +/− 0.030 fold.

`CC1=C(/C=C/C(C)=C/C=C/C(C)=C/C(=O)O)C(C)(C)CCC1` [all-trans retinoic acid] was tested, and the “% change from vehicle” value ([1]; 1 nM all-trans retinoic acid) was “+35.3%”, the “Band Intensity (arbitrary units)” value ([1]; 1 nM all-trans retinoic acid) was 228603.88 arbitrary units and the Relative band intensity ([1]; 1 nM all-trans retinoic acid) was 1.353. The “Fold activity +/− sd (n = 3)” value ([2]; 0.1 μM all-trans retinoic acid) was 1.733 +/− 0.445 fold.
